This note sets out measurements from patent publication US20250179114A1, “Anti-Inflammatory Compound and Use Thereof” (DUALITY BIOLOGICS (SUZHOU) CO., LTD., priority 2021, published 2025).

Each structure is given as a SMILES string.

Assay [1] deals with T1, glucocorticoid receptor (Homo sapiens, UniProt P04150).
T1 construct: host or cells: HEK293
T1 sequence (P04150 1-777): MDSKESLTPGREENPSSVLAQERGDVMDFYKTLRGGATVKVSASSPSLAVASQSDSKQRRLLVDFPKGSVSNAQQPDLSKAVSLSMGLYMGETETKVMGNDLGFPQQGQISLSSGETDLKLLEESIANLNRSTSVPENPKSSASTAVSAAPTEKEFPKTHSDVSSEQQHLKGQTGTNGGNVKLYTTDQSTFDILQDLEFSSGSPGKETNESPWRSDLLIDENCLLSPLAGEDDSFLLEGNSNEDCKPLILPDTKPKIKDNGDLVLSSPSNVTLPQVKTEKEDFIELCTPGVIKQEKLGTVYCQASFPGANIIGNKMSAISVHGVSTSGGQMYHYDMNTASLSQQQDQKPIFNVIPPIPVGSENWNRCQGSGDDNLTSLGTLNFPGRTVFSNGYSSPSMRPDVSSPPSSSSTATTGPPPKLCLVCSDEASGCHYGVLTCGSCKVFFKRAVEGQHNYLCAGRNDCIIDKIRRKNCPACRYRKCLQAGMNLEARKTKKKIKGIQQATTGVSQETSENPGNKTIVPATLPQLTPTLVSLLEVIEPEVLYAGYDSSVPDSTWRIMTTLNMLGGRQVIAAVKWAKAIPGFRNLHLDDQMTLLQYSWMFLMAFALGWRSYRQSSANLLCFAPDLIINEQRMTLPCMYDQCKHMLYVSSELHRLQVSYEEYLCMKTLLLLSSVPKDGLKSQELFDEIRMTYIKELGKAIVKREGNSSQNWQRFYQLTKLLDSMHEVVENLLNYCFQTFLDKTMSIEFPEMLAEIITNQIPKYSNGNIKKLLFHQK
In words: Activity assay of glucocorticoid receptor reporter gene GRE. Conditions: HEK293 cells transfected with pGL5 and pBIND-GR; 24 h; Dual-Glo luciferase. Type of assay: cell-based. As to the method:
(§1) HEK293 cells were cultured in DMEM+10% FBS medium in a carbon dioxide incubator humidified at 37° C. with 5% carbon dioxide.
HEK293 cells were digested with trypsin, and the HEK293 cell resuspension was adjusted to 200,000 cell/mL in medium (96 well plate: 100 μL/well).
Transfection reagent mixtures were prepared according to Tables 5a and 5b below, mixed well and left to stand at room temperature for 20 min.
The prepared transfection mixtures were added to 10 mL of the cell density-adjusted resuspension, mixed well by turning the mixtures upside down, and seeded into a 96-well plate at a volume of 100 μL/well.
The 96-well plate was incubated in a humidified incubator at 37° C. with 5% carbon dioxide for 24 h.
The test plate was placed back into the incubator and incubated for 24 h.
(§2) The test plate was detected using the Dual-Glo Luciferase Assay System kit from Promega, and the fluorescence signal of Firefly Luciferase and the fluorescence signal of Renilla Luciferase were read using Enspire, respectively.
The final measurement value was a normalized value “F/R” obtained by dividing the Firefly Luciferase fluorescent signal by the Renilla Luciferase fluorescent signal.
The data were copied and pasted into Excel, and the activation rate was obtained through an equation.
The data were imported into MS Excel and subjected to curve fitting by using XLFit excel add-in version 5.4.0.8 to obtain an EC50 value.
(§3) Y is the agonism and X is the concentration of the compound.
Background: Reporter assays use an easily measured gene product as a stand-in for the process of interest.

For assay [2], the target named is T2, GR (Homo sapiens, UniProt P04150).
T2 construct: host or cells: HEK293
T2 sequence (P04150 1-777): T1 sequence (P04150 1-777)
The assay is described as follows: GR luciferase reporter gene elution experiment. Type of assay: cell-based. Conditions: supernatant removed and washed, then 24 h; for Elution time (Act %) 15 min: incubation 15 min; for Elution time (Act %) 30 min: incubation 30 min; for Elution time (Act %) 1 h: incubation 1 h; for Elution time (Act %) 2 h: incubation 2 h; for Elution time (Act %) 4 h: incubation 4 h. As for the experimental part:
The compounds of the present application were evaluated for their ability to continue activation upon binding to GR.
as §1
• 1) HEK293 cells were digested with trypsin, and the HEK293 cell resuspension was adjusted to 200,000 cell/mL in medium (96 well plate: 100 μL/well). • 2) Transfection reagent mixtures were prepared according to the table below, mixed well and left to stand at room temperature for 20 min.
• 3) The prepared transfection mixtures were added to 10 mL of the cell density-adjusted resuspension, mixed well by turning the mixtures upside down, and seeded into a 96-well plate at a volume of 100 μL/well. • 4) The 96-well plate was incubated in a humidified incubator at 37° C. with 5% carbon dioxide for 24 h.
as §2
5. Data Processing • 1) The final measurement value was a normalized value “F/R” obtained by dividing the Firefly Luciferase fluorescent signal by the Renilla Luciferase fluorescent signal. • 2) The data were copied and pasted into Excel, and the activation rate was obtained through an equation.
[formula] • 3) The data were imported into MS Excel and subjected to curve fitting by using XLFit excel add-in version 5.4.0.8 to obtain an EC50 value.
as §3

In assay [3] the test system is DBA/1J mice. The assay is described as follows: Bovine type II collagen mixed adjuvant-induced DBA/1 mouse arthritis (CIA) model. Type of assay: in vivo. Conditions: Table 10-2; 0.2 mg/kg p.o.; mean. As for the experimental part:
Example 6: Assay of Biological Activity of Bovine Type II Collagen Mixed Adjuvant-Induced DBA/1 Mouse Arthritis Model
The potency of the ligand-drug conjugates (ADCs) of the present application was evaluated in a bovine collagen-induced arthritis (CIA) model.
Male DBA/1J mice were obtained from Jackson Labs. The mice were used at 6-8 weeks of age. All animals were given ad libitum access to food and water under a 12-hour light/dark cycle at constant temperature and humidity.
Bovine collagen (Chondrex, Inc. Cat: 20021) was dissolved in 0.1 M acetic acid and stored overnight in a 2-8 C refrigerator at a collagen concentration of 8 mg/mL, and an equal volume of CFA (complete Freund's adjuvant, Difco, Laurence, KS) was added into the collagen solution and emulsified in a high speed homogenizer to make an emulsion. On Day 0, animals in need of immunization were anesthetized with 2%-5% isoflurane and male DBA/J mice were immunized once with a single subcutaneous injection of 50 μL collagen/CFA emulsion at the tail root of 2-3 cm from the body. Three weeks later, namely on Day 21, the tail root was immunized twice with the same volume of collagen emulsion by the same injection method. After the second immunization, 120 animals with an average score of about 2 for the limb arthritis were selected and randomly grouped. The animals were treated by a single intraperitoneal injection of test reagent according to the experimental design after grouping. For the dexamethasone (Sphsine) treatment group, the drug was administered the day after grouping until the end of the trial. The extremities of each group were observed twice weekly for the onset of arthritis from the time of the second immunization, and the observation was continued until the end of the trial.
Scoring according to the degree of lesion (redness and swelling) was performed on a scale of 0-4 points, with a maximum score of 4 for each limb and a total maximum score of 16 for each animal's limbs. The scoring criteria are as follows: 0 points, no redness and swelling; 1 point, 1-2 red and swollen interphalangeal joints; 2 points, 3-4 red and swollen interphalangeal joints; 3 points, more than 4 red and swollen interphalangeal joints; 4 points, severe redness and swelling in toes or fingers to ankle joints or wrist joints. For joint swelling, ankle thickness of hind paw of each animal was measured with a screw micrometer before one immunization. Since the second immunization, measurements were performed 2 times per week, and changes in ankle thickness before and after the immunization were compared. After the trial was completed, all animals were anesthetized with 2-5% isoflurane and then euthanized by exsanguination.
Score AUC: area under the curve for arthritis score. The results are shown in Tables 10-1 and 10-2 and FIGS. 3a-3c.

`C[C@]12C=CC(=O)C=C1CC[C@H]1[C@@H]3C[C@H]4O[C@@H](c5ccn(Cc6cccc(N)c6)c5)O[C@@]4(C(=O)CO)[C@@]3(C)C[C@H](O)[C@@]12F` [Compound 7] returned an EC50 in assay [1] of 0.13 nM.
Molecule `C[C@]12C=CC(=O)C=C1CC[C@H]1[C@@H]3C[C@H]4O[C@@H](c5ccn(Cc6ccc(N)cc6)c5)O[C@@]4(C(=O)CO)[C@@]3(C)C[C@H](O)[C@@]12F` [Compound 8] yielded an EC50 in assay [1] of 0.07 nM.
In turn, `C[C@]12C=CC(=O)C=C1CC[C@@H]1[C@@H]2[C@@H](O)C[C@@]2(C)[C@H]1C[C@H]1O[C@@H](c3ccc(Cc4cccc(N)c4)s3)O[C@]12C(=O)CO` [Compound 11] showed an EC50 in assay [1] of 0.37 nM.
For `C[C@]12C=CC(=O)C=C1CC[C@@H]1[C@@H]2[C@@H](O)C[C@@]2(C)[C@H]1C[C@H]1O[C@@H](c3ccc(Cc4ccc(N)cc4)s3)O[C@]12C(=O)CO` [Compound 15], the EC50 in assay [1] stood at 0.63 nM. This EC50 is about 1.7-fold higher than that of the molecule before.
`C[C@]12C=CC(=O)C=C1CC[C@H]1[C@@H]3C[C@H]4O[C@@H](c5ccc(Cc6ccc(N)cc6)s5)O[C@@]4(C(=O)CO)[C@@]3(C)C[C@H](O)[C@@]12F` [Compound 17] returned an EC50 in assay [1] of 0.33 nM. Besides, in assay [2], the “Elution time (Act %) 15 min” value is given as 1.7%, the “Elution time (Act %) 30 min” value came to 0.7%, the “Elution time (Act %) 1 h” value turned out to be 1.3% and the “Elution time (Act %) 2 h” value is recorded as 2.9%. Further, the “Elution time (Act %) 4 h” value in assay [2] is 9.7%.
With `C[C@]12C=CC(=O)C=C1CC[C@@H]1[C@@H]2[C@@H](O)C[C@@]2(C)[C@H]1C[C@H]1O[C@@H](c3cc(Cc4cccc(N)c4)cs3)O[C@]12C(=O)CO` [Compound 18], the EC50 in assay [1] is 0.28 nM.
Still for that read-out and setting: under `CC12C=CC(=O)C=C1CCC1C2C(O)CC2(C)C1CC1OC(c3ccc(Oc4cccc(N)c4)cn3)OC12C(=O)CO` [Compound 19, (6aR,6bS,7S,8aS,8bS,10R,11aR,12aS,12bS)-10-(5-(3-aminophenoxy)pyridin-2-yl)-7-hydroxy-8b-(2-hydroxyacetyl)-6a,8a-dimethyl-1,2,6a,6b,7,8,8a,8b,11a,12,12a,12b-dodecahydro-4H-naphtho[2′,1′:4,5]indeno[1,2-d][1,3]dioxol-4-one] stands > 1000 nM; under `C[C@]12C=CC(=O)C=C1CC[C@@H]1[C@@H]2[C@@H](O)C[C@@]2(C)[C@H]1C[C@H]1O[C@@H](c3coc(Cc4cccc(N)c4)c3)O[C@]12C(=O)CO` [Compound 20], > 1000 nM.
In assay [1], `C[C@]12C=CC(=O)C=C1CC[C@@H]1[C@@H]2[C@@H](O)C[C@@]2(C)[C@H]1C[C@H]1O[C@@H](c3cnc(Cc4cccc(N)c4)s3)O[C@]12C(=O)CO` [Compound 28, reference compound] registered an EC50 of 10 nM.
With `C[C@]12C=CC(=O)C=C1CC[C@@H]1[C@@H]2[C@@H](O)C[C@@]2(C)[C@H]1C[C@H]1O[C@H](c3cnc(Cc4cccc(N)c4)s3)O[C@]12C(=O)CO` [Compound 28S], the EC50 in assay [1] is > 1000 nM.
Take `C[C@@H]1C[C@H]2[C@@H]3CCC4=CC(=O)C=C[C@]4(C)[C@@]3(F)[C@@H](O)C[C@]2(C)[C@@]1(O)C(=O)CO` [Dexamethasone, dexamethasone]: in assay [3], the “Arthritis score AUC (area under the curve for arthritis score)” value is listed as 24.50, the “Arthritis score D 0” value was determined as 0.00, the “Arthritis score D 21” value stood at 0.00 and the “Arthritis score D 24” value is recorded as 0.00. Also, in assay [3], the “Arthritis score D 28” value is on record as 0.00, the “Arthritis score D 31” value was found to be 2.10, the “Arthritis score D 35” value stood at 2.90 and the “Arthritis score Day 38” value is 1.30. Besides, in assay [3], the “Arthritis score Day 42” value was 0.50, the “Arthritis score Day 45” value is given as 0.20, the “Arthritis score Day 49” value is given as 0.00 and the “Arthritis score Day 52” value is 0.00. Moreover, the “Arthritis score Day 56” value in assay [3] is 0.00. Further, in assay [2], the “Elution time (Act %) 15 min” value was 9.4%, the “Elution time (Act %) 30 min” value turned out to be 10.0%, the “Elution time (Act %) 1 h” value is reported as 7.2% and the “Elution time (Act %) 2 h” value is reported as 6.2%. In addition, in assay [2], the “Elution time (Act %) 4 h” value was determined as 31.9%.

The EC50 is the concentration giving half of the maximal effect. High values mean weaker potency, low ones greater potency.
